Earlier results, collected in patent US20230181564A1, “Potent Tetrahydroquinolone Eliminates Apicomplexan Parasites” (The University of Chicago, priority 2020, published 2023).

Tested on: P. berghei sporozoites
Conditions: doses between 1 and 20 mg/kg; not the prodrug; cited from earlier work

## COc1cc2[nH]c(C)c(-c3ccc(Oc4ccc(OC(F)(F)F)cc4)cc3)c(=O)c2cc1Cl [ELQ 300]
  Efficacy in the P. berghei in vivo model: not effective
